From patent publication US20190282569A1, “STABLE PHARMACEUTICAL COMPOSITION” (ASTELLAS PHARMA INC., priority 2016, published 2019)

Columns and labels:
[1] = system: epidermal growth factor receptor (EGFR) mutant kinase; conditions: disclosed in Patent literature 1 (WO 2013/108754); cited from earlier work
[2] = Stability of the drug substance itself; type: physicochemical; conditions: drug substance alone, without pharmaceutical additives

Row | Compound | inhibitory action on an epidermal growth factor receptor (EGFR) mutant kinase [1] | stability of the drug itself (in words) [2]
1 | C=CC(=O)N1CC[C@@H](Oc2nc(Nc3ccc(N4CCC(N5CCN(C)CC5)CC4)cc3)c(C(N)=O)nc2CC)C1 [compound A, 5-{[(3R)-1-Acryloylpyrrolidin-3-yl]oxy}-6-ethyl-3-({4-[4-(4-methylpiperazin-1-yl)piperidin-1-yl]phenyl}amino)-pyrazine-2-carboxamide] | confirmed | 
2 | C=CC(=O)N1CC[C@@H](Oc2nc(Nc3ccc(N4CCC(N5CCN(C)CC5)CC4)cc3)c(C(N)=O)nc2CC)C1.CS(=O)(=O)O [compound A monomethanesulfonate, 5-{[(3R)-1-acryloylpyrrolidin-3-yl]oxy}-6-ethyl-3-({4-[4-(4-methylpiperazin-1-yl)piperidin-1-yl]phenyl}amino)-pyrazine-2-carboxamide monomethanesulfonate] |  | stable
